{"source": "patent US20180243345A1", "about": "“METHOD FOR INCREASING MUSCLE GROWTH USING KRILL EXTRACT” (AVOCA, INC., priority 2015, published 2018)", "test_system": "mTOR signaling", "assay": "mTOR signaling in C2C12 myoblasts (Western blot, ratio of P-p70-389 to total p70)", "type": "cell-based", "conditions": "for change in ratio of P-p70-389 to total p70 (mTOR signaling) compared to vehicle/control, in words / mTOR signaling compared with another stimulant, in words: 10 or 30 μM, 20 minutes; for mTOR signaling (ratio of P-p70-389 to total p70): 20 minutes stimulation, compared to vehicle", "method": "C2C12 myoblasts were plated at approximately 30% confluence and grown for 24 hours in 10% FBS High Glucose DMEM with antibiotics (100m/ml streptomycin and 100 U/ml penicillin; Sigma). At 16 hours prior to the experiment, myoblasts cells were switched to serum free high glucose DMEM (no antibiotics) and were approximately 70% confluent at the time of the experiment. All stimulants were dissolved in chloroform to yield a concentration of 10 mg/mL, with the exception of DAG which was dissolved at 2 mg/mL and G3P which was dissolved at 6 mg/mL. […] Accordingly, cells were stimulated for 20 minutes with vehicle (Control; 100 μL of PBS) 10 or 30 μM of RIMFROST Sublime Krill Oil Extract (Rimfrost USA, Inc, Merry Hill, N.C.), soy-derived (S) phosphatidylserine (S-PS), phosphatidylinositol (S-PI), phosphatidylethanolamine (S-PE), phosphatidylcholine (S-PC), phosphatidic acid (S-PA), lysophosphatidic acid (S-LPA), diacylglycerol (DAG), glycerol-3-phosphate (G3P), or egg-derived PA (E-PA). Cells were then harvested in lysis buffer (40 mM Tris, pH 7.5; 1 mM EDTA; 5 mM EGTA; 0.5% Triton X-100; 25 mM (3-glycerophosphate; 25 mM NaF; 1 mM Na3VO4; 10 μg/mL leupeptin; and 1 mM PMSF) and subjected to immunoblotting as previously described. The ratio of P-p70-389 to total p70 was used as readout for mTOR signaling. As used in the Examples disclosed herein, 10 μM of RIMFROST Sublime Krill Oil Extract contains 0.01253 μM PS, which is 0.6% of the phospholipid content; and 30 μM of RIMFROST Sublime Krill Oil Extract contains 0.0376 μM PS, which is 0.6% of the phospholipid content.\nThe data was analyzed using a one way analysis of variance (ANOVA). A Tukey's Multiple Comparison Test was used to determine significant differences between treatments. Significance was set at P<0.05. Statistical analyses were performed on SigmaStat software (San Jose, Calif., USA).\nIn accordance with the materials and methods described above, krill extract, S-PC, S-PS, and S-PA were tested for their ability to activate mTOR signaling. […] The samples were then subjected to Western blot analysis for p70S6K phosphorylation on the threonine 389 residue (p′70-389) and total p70. The ratio of these signals was calculated and used as a marker of mTOR signaling."}
{"compound": "O=P(O)(O)OCC(O)CO", "note": "(stereo not drawn) [G3P, glycerol-3-phosphate]", "values": [{"measurement": "change in ratio of P-p70-389 to total p70 (mTOR signaling) compared to vehicle/control, in words", "value": "no increase"}]}
{"compound": "diacylglycerol [DAG]", "values": [{"measurement": "change in ratio of P-p70-389 to total p70 (mTOR signaling) compared to vehicle/control, in words", "value": "no increase"}]}
{"compound": "lysophosphatidic acid [S-LPA]", "values": [{"measurement": "mTOR signaling compared with another stimulant, in words", "value": "to a greater degree than did E-PA"}, {"measurement": "mTOR signaling (ratio of P-p70-389 to total p70)", "setting": "taken as 10 μM", "value": 638, "unit": "%"}, {"measurement": "mTOR signaling (ratio of P-p70-389 to total p70)", "setting": "taken as 30 μM", "value": 694, "unit": "%"}]}
{"compound": "phosphatidic acid [E-PA]", "values": [{"measurement": "mTOR signaling (ratio of P-p70-389 to total p70)", "setting": "taken as 10 μM", "value": 206, "unit": "%"}, {"measurement": "mTOR signaling (ratio of P-p70-389 to total p70)", "setting": "taken as 30 μM", "value": 221, "unit": "%"}]}
{"compound": "phosphatidic acid [S-PA]", "values": [{"measurement": "mTOR signaling compared with another stimulant, in words", "value": "to a greater degree than did E-PA"}, {"measurement": "mTOR signaling (ratio of P-p70-389 to total p70)", "setting": "taken as 10 μM", "value": 658, "unit": "%"}, {"measurement": "mTOR signaling (ratio of P-p70-389 to total p70)", "setting": "taken as 30 μM", "value": 636, "unit": "%"}]}
{"compound": "phosphatidylcholine [S-PC]", "values": [{"measurement": "change in ratio of P-p70-389 to total p70 (mTOR signaling) compared to vehicle/control, in words", "value": "no increase"}]}
{"compound": "phosphatidylethanolamine [S-PE]", "values": [{"measurement": "change in ratio of P-p70-389 to total p70 (mTOR signaling) compared to vehicle/control, in words", "value": "no increase"}]}
{"compound": "phosphatidylinositol [S-PI]", "values": [{"measurement": "change in ratio of P-p70-389 to total p70 (mTOR signaling) compared to vehicle/control, in words", "value": "no increase"}]}
{"compound": "phosphatidylserine [S-PS]", "values": [{"measurement": "mTOR signaling (ratio of P-p70-389 to total p70)", "setting": "taken as 10 μM", "value": 529, "unit": "%"}, {"measurement": "mTOR signaling (ratio of P-p70-389 to total p70)", "setting": "taken as 30 μM", "value": 558, "unit": "%"}]}
